# Values of other authors as cited in article PMC8621857, “Structural Insights into the Azole Resistance of the Candida albicans Darlington Strain Using Saccharomyces cerevisiae Lanosterol 14α-Demethylase as a Surrogate” (Journal of Fungi, 2021).
# System: CaLDM I471T
# Set-up: method as in PMID 20625155
# Conditions: detergent solubilized CaLDM I471T single-mutation; cited from earlier work
smiles,measurement,value
CC(C)=CCC[C@@H](C)[C@H]1CC[C@@]2(C)C3=C(CC[C@]12C)[C@@]1(C)CC[C@H](O)C(C)(C)[C@@H]1CC3 [lanosterol],higher affinity for the endogenous substrate than the wild-type protein,2.4 fold
